The source of these data is US8207156B2, “Substituted pyrazoline compounds, their preparation and use as medicaments” (Laboratorios Del Dr. Esteve, S.A., priority 2005, dated 2012).

Where a name gives a salt, the structure may show the parent alone.

Chain of recombinant human cannabinoid 1 receptor (CB1) (P21554 whole entry): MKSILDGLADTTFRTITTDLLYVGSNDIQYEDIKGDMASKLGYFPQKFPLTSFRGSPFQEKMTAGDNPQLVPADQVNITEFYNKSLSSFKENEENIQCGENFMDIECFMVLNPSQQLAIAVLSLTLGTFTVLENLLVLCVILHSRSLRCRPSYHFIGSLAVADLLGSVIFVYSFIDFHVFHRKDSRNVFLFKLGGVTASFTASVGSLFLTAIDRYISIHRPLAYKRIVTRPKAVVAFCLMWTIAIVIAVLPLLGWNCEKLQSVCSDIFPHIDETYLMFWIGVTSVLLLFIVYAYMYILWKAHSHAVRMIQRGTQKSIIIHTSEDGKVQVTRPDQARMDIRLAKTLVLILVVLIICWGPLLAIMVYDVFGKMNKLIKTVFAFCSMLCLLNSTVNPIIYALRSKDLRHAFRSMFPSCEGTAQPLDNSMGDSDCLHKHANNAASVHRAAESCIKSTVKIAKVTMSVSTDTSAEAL

One test addresses recombinant human cannabinoid 1 receptor (CB1) (Homo sapiens, UniProt P21554). Nature of the test: In vitro determination of antagonism to CB1-receptor ([35S]GTPγS binding assay, CHO cell membranes). Format: biochemical. Particulars: compound at 1 μM against agonist WIN 55,212-2 (3 nM to 3 μM); effect of Rimonabant (1 μM) defined as 100%. The protocol: Chinese hamster ovary (CHO) cells stably expressing recombinant human cannabinoid 1 receptor (CB1) were cultured in nutrient mixture Ham's F 12 supplemented with 10% heat-inactivated fetal bovine serum, 2 mM L-glutamine, 50 U/ml penicillin, 50 U/ml streptomycin and 0.5 mg/ml geneticin. In order to obtain cells, culture flasks were washed twice with phosphate buffered saline and scraped. Then, cells were collected by centrifugation (200×g, 10 min) and stored dry at −80° C. Cells were homogenized in ice-cold 20 mM HEPES, 10 mM EDTA (pH 7.5) and centrifuged at 40,000×g for 15 min at 4° C. The membrane pellet was resuspended in 20 mM HEPES, 0.1 mM EDTA (pH 7.5) and centrifuged for 15 min at 4° C. The final membrane pellet was resuspended in 20 mM HEPES, 0.1 mM EDTA (pH 7.5), and divided in aliquots and stored at −80° C. until use.
The reaction was performed in 96-well plates. Membranes (15 μg protein/well) were incubated for 60 min at 30° C. in buffer (50 mM HEPES, 100 mM KCl, 5 mM MgCl2,1 mM EDTA, 0.1% wt/vol bovine serum albumin, 5 μM GDP, saponin (10 μg/ml), 0.5 nM [^35S]GTPγS, pH 7.4) with compound at a final concentration of 1 μM in either the absence or presence of agonist WIN 55, 212-2 between 3 nM and 3 μM. The incubation was terminated by rapid filtration through Millipore Multiscreen glass fiber FB, and rinsed two-times with ice-cold assay buffer. Filter plates were dried and 30 μl of scintillation liquid was added. Radioactivity was determined using a Wallac Microbeta Trilux. Each experiment was performed at least in duplicate. A WIN 55, 212-2 dose-response experiment either alone or in the presence of Rimonabant (1 μM) was systematically performed.
The average of basal [^35S]GTPγS binding was subtracted from all binding data. In order to compare the antagonism results from one screening campaign to another one, the difference between the maximal agonist effect of WIN 55, 212-2 alone, and the maximal antagonism effect due to WIN 55, 212-2 plus Rimonabant (1 μM) was defined as 100%.
(In general: GTPγS resists hydrolysis and so accumulates on activated G proteins.)
With `O=C(NN1CCOCC1)C1=NN(c2ccc(Cl)cc2Cl)C(c2ccc(Br)cc2)C1` (stereo not shown) [Example 67, 5-(4-Bromo-phenyl)-1-(2,4-dichloro-phenyl)-4,5-dihydro-1H-pyrazole-3-carboxylic acid morpholin-4-ylamide], the “Antagonism [%]” value was 52%.

With `O=C(C1=NN(c2ccc(Cl)cc2Cl)C(c2ccc(Cl)cc2)C1)N1CCc2ccccc2C1` (stereo not shown) [Example 45, [5-(4-Chloro-phenyl)-1-(2,4-dichloro-phenyl)-4,5-dihydro-1H-pyrazol-3-yl]-(3,4-dihydro-1H-isoquinolin-2-yl)-methanone], the “Antagonism [%]” value came out at 59%. The same measure, in the same setting: for `CCN(C(=O)C1=NN(c2ccc(Cl)cc2Cl)C(c2ccc(Cl)cc2)C1)C1CCCCC1` (stereo not shown) [Example 33, 5-(4-Chloro-phenyl)-1-(2,4-dichloro-phenyl)-4,5-dihydro-1H-pyrazole-3-carboxylic acid cyclohexyl-ethyl-amide] the value was 2%.

For the compound `CN(C(=O)C1=NN(c2ccc(Cl)cc2Cl)C(c2ccc(Cl)cc2)C1)C1CCCCC1` (stereo not shown) [Example 47, 5-(4-Chloro-phenyl)-1-(2,4-dichloro-phenyl)-4,5-dihydro-1H-pyrazole-3-carboxylic acid cyclohexyl-methyl-amide], the “Antagonism [%]” value came out at 28%. Still for that read-out and setting: under `O=C(C1=NN(c2ccc(Cl)cc2Cl)C(c2ccc(Cl)cc2)C1)N1CCOCC1` (stereo not shown) [Example 54, [5-(4-Chloro-phenyl)-1-(2,4-dichloro-phenyl)-4,5-dihydro-1H-pyrazol-3-yl]-morpholin-4-yl-methanone] stands 46%; under `O=C(O)C1=NN(c2ccc(Cl)cc2Cl)C(c2ccc(F)cc2)C1` (stereo not shown) [Example 126, 1-(2,4-Dichloro-phenyl)-5-(4-fluoro-phenyl)-4,5-dihydro-1H-pyrazole-3-carboxylic acid], 30%; under `CCCCCCNC(=O)C1=NN(c2ccc(Cl)cc2Cl)C(c2ccc(Cl)cc2)C1` (stereo not shown) [Example 20, 5-(4-Chloro-phenyl)-1-(2,4-dichloro-phenyl)-4,5-dihydro-1H-pyrazole-3-carboxylic acid hexylamide], 61%. Still for that read-out and setting: for `O=C(NN1CC2CCCC2C1)C1=NN(c2ccc(Cl)cc2Cl)C(c2ccc(Cl)cc2)C1` (stereo not shown) [Example 10, 5-(4-Chloro-phenyl)-1-(2,4-dichloro-phenyl)-4,5-dihydro-1H-pyrazole-3-carboxylic acid (hexahydro-cyclopenta[c]pyrrol-2-yl)-amide] the value was 119%; for `O=C(O)[C@@H]1CCCN1C(=O)C1=NN(c2ccc(Cl)cc2Cl)C(c2ccc(Cl)cc2)C1` (stereo partly shown) [Example 53, 1-[5-(4-Chloro-phenyl)-1-(2,4-dichloro-phenyl)-4,5-dihydro-1H-pyrazole-3-carbonyl]-pyrrolidine-2-carboxylic acid], 14%.

Take `O=C(C1=NN(c2ccc(Cl)cc2Cl)C(c2ccc(Cl)cc2)C1)N1CCC(N2CCCCC2)CC1` (stereo not shown) [Example 42, [1,4′]Bipiperidinyl-1′-yl-[5-(4-chloro-phenyl)-1-(2,4-dichloro-phenyl)-4,5-dihydro-1H-pyrazol-3-yl]-methanone]: the “Antagonism [%]” value is given as −13%.

Consider `CCCCCC(C)NC(=O)C1=NN(c2ccc(Cl)cc2Cl)C(c2ccc(Cl)cc2)C1` (stereo not shown) [Example 35, 5-(4-Chloro-phenyl)-1-(2,4-dichloro-phenyl)-4,5-dihydro-1H-pyrazole-3-carboxylic acid (1-methyl-hexyl)-amide], for which the “Antagonism [%]” value is on record as 68%. Same read-out and setting: for `CC(C)N(C(=O)C1=NN(c2ccc(Cl)cc2Cl)C(c2ccc(Cl)cc2)C1)C(C)C` (stereo not shown) [Example 50, 5-(4-Chloro-phenyl)-1-(2,4-dichloro-phenyl)-4,5-dihydro-1H-pyrazole-3-carboxylic acid diisopropylamide] the value was 18%.

Still in this test, the particulars now being: compound at 1 μM against agonist WIN 55,212-2 (3 nM to 3 μM); effect of Rimonabant (1 μM) defined as 100%; hydrochloride.
Regarding `O=C(NN1CC2CCCC2C1)C1=NN(c2ccc(Cl)cc2Cl)C(c2ccc(Cl)cc2)C1` (stereo not shown) [Example 193, 5-(4-Chloro-phenyl)-1-(2,4-dichloro-phenyl)-4,5-dihydro-1H-pyrazole-3-carboxylic acid (hexahydro-cyclopenta[c]pyrrol-2-yl)-amide hydrochloride], the “Antagonism [%]” value was determined as 115%.
